In this test the target is full-length USP7 (Homo sapiens (Human), UniProt Q93009). In words: Enzymatic assay to determine IC50 of USP7 inhibitors (Ubiquitin-Rhodamine 110 cleavage). It is filed as biochemical. Particulars: for IC50: 0.5 nM USP7, 0.5 μM Ubiquitin-Rhodamine 110, 45 min at 37° C.; for inhibition at 1 µM: at 1 μM of the test compound, given where IC50 not determined yet, read-out: percent value of inhibition of USP7 activity. The procedure, abridged: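 Full-length USP7 (0.5 nM) in 50 mM HEPES pH 7.5, 150 mM NaCl, 1 mM DTT, 1 mg/ml BSA, 0.05% Tween20 was preincubated 15 min with DTT at room temperature before compound addition.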

In patent US12404279B2, “Deubiquitinase inhibitors and methods of use thereof” (Molecure S.A., priority 2021, dated 2025) one finds IC50 and inhibition data, which are given here for 9 compounds.

Counter-ions that a name gives are not always drawn.

Chain of full-length USP7 (Q93009 whole entry): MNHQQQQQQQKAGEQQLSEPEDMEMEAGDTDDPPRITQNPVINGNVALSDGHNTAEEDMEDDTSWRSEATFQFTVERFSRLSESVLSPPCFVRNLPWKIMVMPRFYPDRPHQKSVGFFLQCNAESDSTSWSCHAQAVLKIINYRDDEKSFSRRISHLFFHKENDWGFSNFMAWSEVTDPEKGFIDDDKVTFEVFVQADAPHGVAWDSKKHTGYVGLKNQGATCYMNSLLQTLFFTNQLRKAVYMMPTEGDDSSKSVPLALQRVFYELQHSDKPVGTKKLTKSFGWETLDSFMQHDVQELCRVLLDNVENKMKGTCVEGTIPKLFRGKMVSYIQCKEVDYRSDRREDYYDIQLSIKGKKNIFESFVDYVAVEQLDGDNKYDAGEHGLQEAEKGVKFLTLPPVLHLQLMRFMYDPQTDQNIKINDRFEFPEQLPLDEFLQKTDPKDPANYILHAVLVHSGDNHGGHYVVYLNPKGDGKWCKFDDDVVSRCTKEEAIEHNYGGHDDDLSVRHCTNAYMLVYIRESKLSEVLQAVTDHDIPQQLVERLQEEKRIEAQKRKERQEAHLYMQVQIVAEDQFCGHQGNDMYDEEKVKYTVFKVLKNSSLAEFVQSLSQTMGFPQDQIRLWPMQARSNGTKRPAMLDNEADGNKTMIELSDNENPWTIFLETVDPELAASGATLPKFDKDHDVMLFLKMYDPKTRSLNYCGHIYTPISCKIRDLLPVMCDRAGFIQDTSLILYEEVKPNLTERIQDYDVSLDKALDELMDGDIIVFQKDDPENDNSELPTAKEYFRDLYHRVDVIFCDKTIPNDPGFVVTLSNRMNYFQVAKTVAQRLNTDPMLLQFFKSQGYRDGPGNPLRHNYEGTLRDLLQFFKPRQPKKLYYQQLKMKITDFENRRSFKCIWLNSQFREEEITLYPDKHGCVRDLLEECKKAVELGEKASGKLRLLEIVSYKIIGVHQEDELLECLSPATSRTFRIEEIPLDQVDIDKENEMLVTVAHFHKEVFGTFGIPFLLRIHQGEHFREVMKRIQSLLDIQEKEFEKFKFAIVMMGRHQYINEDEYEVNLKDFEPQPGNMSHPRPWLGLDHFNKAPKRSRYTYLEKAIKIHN

Compound `Cc1cc(Cl)nc(-c2ccnc3cc(CN4C(=O)C5C(C4=O)C5(C)C)sc23)c1OC1CCCNC1` (racemic) [Example 3, 3-((7-(6-chloro-4-methyl-3-(piperidin-3-yloxy)pyridin-2-yl)thieno[3,2-b]pyridin-2-yl)methyl)-6,6-dimethyl-3-azabicyclo[3.1.0]hexane-2,4-dione hydrochloride] registered an IC50 of under 500 nM.
`Cc1cc(C(F)(F)F)nc(-c2ccnc3cc(CN4C(=O)C5C(C4=O)C5(C)C)sc23)c1C(=O)N1C[C@@H](N)[C@@H](F)C1` (stereo partly drawn) [Example 169, 3-((7-(3-((3R,4S)-3-amino-4-fluoropyrrolidine-1-carbonyl)-4-methyl-6-(trifluoromethyl)pyridin-2-yl)thieno[3,2-b]pyridin-2-yl)methyl)-6,6-dimethyl-3-azabicyclo[3.1.0]hexane-2,4-dione hydrochloride] showed a half-inhibitory concentration (IC50) of under 500 nM.
On to `Cc1cc(Cl)cc(-c2ccnc3cc(CN4C(=O)C5C(C4=O)C5(C)C)sc23)c1NC1CCNC1` (stereo not drawn) [Example 175, 3-((7-(5-chloro-3-methyl-2-(pyrrolidin-3-ylamino)phenyl)thieno[3,2-b]pyridin-2-yl)methyl)-6,6-dimethyl-3-azabicyclo[3.1.0]hexane-2,4-dione hydrochloride], for which the IC50 was under 500 nM.
As to `Cc1cc(C#N)nc(-c2ccnc3cc(CN4C(=O)C5C(C4=O)C5(C)C)sc23)c1C(=O)N1CC(N(C)C)C1` (stereo not drawn) [Example 43, 6-(2-((6,6-dimethyl-2,4-dioxo-3-azabicyclo[3.1.0]hexan-3-yl)methyl)thieno[3,2-b]pyridin-7-yl)-5-(3-(dimethylamino)azetidine-1-carbonyl)-4-methylpicolinonitrile], the inhibition at 1 µM lay in the range of 50 to 70%.
For the compound `Cc1cc(C(F)(F)F)nc(-c2ccnc3cc(CN4C(=O)C5C(C4=O)C5(C)C)sc23)c1C(=O)N1CCC(F)(F)C1` (stereo not drawn) [Example 83, 3-((7-(3-(3,3-difluoropyrrolidine-1-carbonyl)-4-methyl-6-(trifluoromethyl)pyridin-2-yl)thieno[3,2-b]pyridin-2-yl)methyl)-6,6-dimethyl-3-azabicyclo[3.1.0]hexane-2,4-dione hydrochloride], the IC50 was under 500 nM.
With `Cc1c(N(C)C)cc(-c2ccnc3cc(CN4C(=O)C5C(C4=O)C5(C)C)sc23)n1C[C@@H]1CNCCO1` (stereo partly drawn) [Example 177, 3-((7-(4-(dimethylamino)-5-methyl-1-(((S)-morpholin-2-yl)methyl)-1H-pyrrol-2-yl)thieno[3,2-b]pyridin-2-yl)methyl)-6,6-dimethyl-3-azabicyclo[3.1.0]hexane-2,4-dione hydrochloride], the inhibition at 1 µM was under 20%.
With `Cc1cc(C(F)(F)F)nc(-c2ccnc3cc(CN4C(=O)C5C(C4=O)C5(C)C)sc23)c1C(=O)N1C[C@H](N)[C@@H](F)C1` (stereo partly drawn) [Example 170, 3-((7-(3-((3S,4S)-3-amino-4-fluoropyrrolidine-1-carbonyl)-4-methyl-6-(trifluoromethyl)pyridin-2-yl)thieno[3,2-b]pyridin-2-yl)methyl)-6,6-dimethyl-3-azabicyclo[3.1.0]hexane-2,4-dione hydrochloride], the IC50 was under 500 nM.
`Cc1nc(C(F)(F)F)cc(-c2ccnc3cc(CN4C(=O)C5C(C4=O)C5(C)C)sc23)c1CC1CCNC1` (stereo not drawn) [Example 89, 6,6-dimethyl-3-((7-(2-methyl-3-(pyrrolidin-3-ylmethyl)-6-(trifluoromethyl)pyridin-4-yl)thieno[3,2-b]pyridin-2-yl)methyl)-3-azabicyclo[3.1.0]hexane-2,4-dione hydrochloride] returned an IC50 of under 500 nM.
For the compound `Cc1cc(Cl)cc(-c2ccnc3nc(CN4C(=O)C5C(C4=O)C5(C)C)sc23)c1O[C@H]1CCCNC1` (stereo partly drawn) [Example 151, 3-((7-(5-chloro-3-methyl-2-(((S)-piperidin-3-yl)oxy)phenyl)thiazolo[4,5-b]pyridin-2-yl)methyl)-6,6-dimethyl-3-azabicyclo[3.1.0]hexane-2,4-dione dihydrochloride], the inhibition at 1 µM is under 20%.
